# According to US20170319669A1, “METHOD OF ENHANCING VIRAL-MEDIATED GENE DELIVERY” (Wayne State University, priority 2016, published 2017):
# Peptide text beside a SMILES is read from it. * marks the point of attachment. Cbz = O=C(OCc1ccccc1)*
# Experiments:
# retinal bipolar cells = assay: AAV-mediated transduction efficiency (mCherry expression) in retinal bipolar cells after intravitreal co-injection of rAAV2 vector with proteasome inhibitor; format: in vivo, C57BL/6J mice; settings: for transduction efficiency in retinal bipolar cells: about one month after virus injection; for expression (fluorescence intensity) of mCherry in bipolar cells: intravitreal
# Text: FIG. 1A-B is a series of photographs and a graph depicting the effects of proteasomes on the AAV-mediated expression of transgene (mCherry) in retinal bipolar cells one month after virus injection. FIG. 1A: Representative images of virus transduced retinal bipolar cells. […] DOX: doxorubicin; Acla: Aclarubicin; MG: MG132. FIG. 1B. Statistical data for evaluating the fluorescence intensity of mCherry in bipolar cells one month after virus injection.
# FIG. 2A-B is a series of photographs and a graph depicting the effects of DOX on the AAV-mediated expression of transgene (mCherry) in retinal bipolar cells three months after virus injection. FIG. 2A. Representative images of virus transduced retinal bipolar cells three months after virus injection. Virus vectors were co-injected with DOX at different concentrations. FIG. 2B. Statistical data for evaluating the fluorescence intensity of mCherry in bipolar cells three months after virus injection.
# retinal ganglion cells = assay: Density of retinal ganglion cells (DAPI staining) after virus injection with and without DOX; format: in vivo, C57BL/6J mice; settings: three months after virus injection; 300 μM and 500 μM DOX
# Text: FIG. 4A-B is a series of photographs and a graph, depicting the effects of DOX on retinal ganglion cells. FIG. 4A. Representative images for evaluating the density of retinal ganglion cells with DAPI staining after virus transduction in bipolar cells with and without DOX at different concentrations. Animals were euthanized one and three months after virus injection. FIG. 4B. Statistical data for evaluating the density of retinal ganglion cells one and three months after virus injection with and without doxorubicin (DOX).
structure (smiles),measurement,setting,value
CC[C@@]1(O)C[C@H](O[C@H]2C[C@H](N(C)C)[C@H](O[C@H]3C[C@H](O)[C@H](O[C@H]4CCC(=O)[C@H](C)O4)[C@H](C)O3)[C@H](C)O2)c2c(cc3c(c2O)C(=O)c2c(O)cccc2C3=O)[C@H]1C(=O)OC [aclarubicin],transduction efficiency in retinal bipolar cells,"retinal bipolar cells; aclarubicin 50 μM, 100 μM",not found to enhance the transduction efficiency
CC(C)C[C@@H](C=O)NC(=O)[C@H](CC(C)C)NC(=O)[C@H](CC(C)C)NC(=O)OCc1ccccc1 [MG132] (Cbz-Leu-Leu-Leu-aldehyde),transduction efficiency in retinal bipolar cells,"retinal bipolar cells; MG132 100 μM, 200 μM, 500 μM",not found to enhance the transduction efficiency
COc1cccc2c1C(=O)c1c(O)c3c(c(O)c1C2=O)C[C@@](O)(C(=O)CO)C[C@@H]3O[C@H]1C[C@H](N)[C@H](O)[C@H](C)O1 [doxorubicin],transduction efficiency in retinal bipolar cells,retinal bipolar cells; doxorubicin from 200 μM to 800 μM,concentration-dependent increase
same,optimal concentration to enhance the AAV transduction efficiency,"retinal bipolar cells; intravitreal co-injection with rAAV2 vector, mice",500 µM
same,expression (fluorescence intensity) of mCherry in bipolar cells,"retinal bipolar cells; one month after virus injection, co-injection of DOX at concentrations ≧300 μM, mice",significantly increased
same,expression (fluorescence intensity) of mCherry in bipolar cells,"retinal bipolar cells; three months after virus injection, co-injection of DOX at concentrations ≧200 μM, mice",significantly increased
same,retinal ganglion cell density vs control,retinal ganglion cells,statistically lower than that of control
